# Measurements as given in US12391683B2, “Therapeutic compounds and methods” (Actio Biosciences, Inc., priority 2022, dated 2025).
# Legend:
# Hepatocytes = Hepatocytes predicted clearance, cyno
# Human TRPV4 = Human TRPV4 (Homo sapiens, UniProt Q9HBA0); assay: TRPV4 calcium flux assay (FLIPR, antagonist mode); type: cell-based; design: HiBiT (inferred from the expression read-out); host or cells: HEK293T; details: HEK293T cells transfected with hTRPV4; antagonist mode vs EC80 of TRPV4 agonist; average of at least 3 separate experiments; read-out: Human TRPV4 Ca2+ Assay IC50
# Method: Example 23. TRPV4 Calcium Assay Methods
# Human embryonic kidney 293T (HEK293T/293T) cells are cultured in complete media (Dulbecco's Modified Eagle Medium (DMEM), containing 10% fetal bovine serum (FBS) and 1× penicillin-streptomycin) in a T-75 tissue culture flask. At 90% confluency, cells are detached using TrypLE™ Express cell dissociation buffer. TrypLE™ Express buffer is neutralized by adding culture media in excess. Cells are gently triturated and counted using trypan blue in a Countess 3 automated cell counter. Cells are transferred to a 50 mL conical tube and spun down at 1000 rotations per minute (RPM) for five minutes in a benchtop centrifuge. Media containing detaching enzyme is aspirated off the pellet, followed by resuspension to the desired concentration of 2×10^6 cells per mL in complete DMEM.
# Transfection preparations were scaled using a combination of 6 μg of TRPV4 wild-type or mutant plasmid DNA, 36 μL of Fugene6 transfection reagent, and 1000 μL of OptiMEM media for every 2×10^6 cells needed. The transfection mix is left to incubate for 20 minutes at room temperature. Total seeding mixture (1000 μL 2×10^6 cells, 1000 μL transfection mix previously described, and 1000 μL complete DMEM) for one transfection is combined into a 15 mL conical tube. The cells and transfection plasmid are mixed thoroughly and dispensed into a reservoir. This is plated at 25 μL per well in a black 384, black-well, clear-bottom, tissue-culture treated plate. This yields approximately 16,000 cells per well. Plasmid DNA constructs were designed by Actio Biosciences in conjunction with Genscript, and generated by Genscript, for all hTRPV4 wild-type and hTRPV4 P/LP (ClinVar) mutations (G78W, P82S, T891, P97R, R186Q, R232C, R232P, R237G, R237Q, R237 L, R269C, R269H, R269S, G270V, R271P, F273 L, K276E, E278K, G280S, Y281S, R315G, R315W, R316C, R316H, R316 L, R316S, I331F, D333G, S403T, K403T, K407E, S542P, S542Y, L543R, Y591N, R594C, R594H, R594S, G600E, Y602C, R616Q, F617 L, L618P, V6201, A716S, A716T, L735R, T740I, R775K, W785R, E797D, E797K, P799A, P799R, P799S, P799 L, G800D, K801E, P827H, F471del, N797del). The remaining cells are plated in the same manner, in a 384, white-well, clear-bottom, tissue-culture treated plate for expression and relative cell number determination. Plates are placed in the incubator at 37° C. overnight.
# Compounds were brought to 10 mM in DMSO. DMSO concentration was kept constant throughout the dilution of any compound. DMSO negative control and concentration-response curves were nanoliter-spotted via PICO8 automated dispenser at 5× test concentration into a 384w clear polypropylene plate containing 1×HBSS+20 mM HEPES buffer. A predetermined concentration equivalent to the EC80 of TRPV4 agonist on hTRPV4 was prepared at 6× in 1×HBSS+20 mM HEPES and loaded into a separate 384-well v-bottom polypropylene plate.
# Approximately 18 hours post-transfection, the cell plates were removed from the incubator and equal volume (25 uL) Calcium 6 dye was gently added. Calcium 6 dye containing probenecid (final 5 mM) was prepared per manufacturer's instructions. Cell plate was returned to the incubator for 1 hour, at 37° C.
# FLIPR Penta was programmed to add compound using the following settings • Pipettor Head=384 • Read Mode 1 Excitation Wavelength=470_495 • Read Mode 1 Emission Wavelength=515_575 • Read Mode 1 Exposure=0.1000 • Read Mode 1 Gain=6.50 • Read Mode 1 Excitation Intensity=20 • Volume of addition=12.5 μL • Height=40 μL • Speed=15 μL/second
# Raw data was exported and analyzed for maximum signal (RFU) after agonist addition—the average baseline (RFU) in the first 15 seconds per well. Data was plotted in GraphPad Prism to determine EC50 or IC50 of the molecules.
# Sequence of Human TRPV4 (Q9HBA0 whole entry): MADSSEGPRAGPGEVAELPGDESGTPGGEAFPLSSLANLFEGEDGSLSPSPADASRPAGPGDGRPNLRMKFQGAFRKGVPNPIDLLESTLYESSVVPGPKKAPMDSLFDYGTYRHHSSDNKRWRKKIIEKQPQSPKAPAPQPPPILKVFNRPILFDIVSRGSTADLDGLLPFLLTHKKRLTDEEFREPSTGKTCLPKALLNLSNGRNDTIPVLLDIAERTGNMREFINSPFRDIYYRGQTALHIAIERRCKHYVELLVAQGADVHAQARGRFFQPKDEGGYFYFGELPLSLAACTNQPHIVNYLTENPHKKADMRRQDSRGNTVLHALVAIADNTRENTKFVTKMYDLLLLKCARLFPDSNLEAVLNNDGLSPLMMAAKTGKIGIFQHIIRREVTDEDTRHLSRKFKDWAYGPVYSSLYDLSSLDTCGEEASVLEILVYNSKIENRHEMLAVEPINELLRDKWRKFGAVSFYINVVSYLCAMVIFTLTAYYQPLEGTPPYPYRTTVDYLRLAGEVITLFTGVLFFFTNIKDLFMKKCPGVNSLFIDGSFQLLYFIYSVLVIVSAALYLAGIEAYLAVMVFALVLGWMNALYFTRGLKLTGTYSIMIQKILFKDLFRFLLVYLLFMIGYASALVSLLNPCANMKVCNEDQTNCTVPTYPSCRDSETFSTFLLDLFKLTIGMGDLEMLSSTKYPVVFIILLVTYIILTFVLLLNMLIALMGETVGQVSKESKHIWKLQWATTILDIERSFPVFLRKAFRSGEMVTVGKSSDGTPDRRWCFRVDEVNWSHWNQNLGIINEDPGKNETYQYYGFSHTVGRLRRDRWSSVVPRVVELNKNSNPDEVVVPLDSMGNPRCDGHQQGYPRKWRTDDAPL
smiles,measurement,setting,value
"CC(C)(O)c1cnc(N2C[C@@]3(CC[C@@H](F)[C@](C)(Cn4cnc5ccc(C#N)cc54)C3)OC2=O)cn1 (single isomer, unassigned) [Example 5]",Hepatocytes predicted clearance in cyno,Hepatocytes,1 mL/min/kg
same,IC50,Human TRPV4,0.013 µM
